For experiment [1], the target named is BCL-2 binding to biotinylated BAD peptide (Homo sapiens (Human), UniProt P10415). In words: SPR (Biacore) solution inhibition assay, BCL-2 binding to BAD peptide surface. As to conditions: read-out: BCL2_SPR IC50 BAD. An excerpt: (§1) The present method includes utility of a Surface plasmon resonance (SPR)-based biosensor (Biacore™′ GE Healthcare, Uppsala, Sweden) to characterize BCL-2 inhibitors.
(§2) Biacore™ utilizes the phenomenon of surface plasmon resonance (SPR) to detect and measure binding interactions. In a typical Biacore experiment, one of the interacting molecules (ligand) is immobilized on a flexible dextran matrix while the interacting partner (analyte) is allowed to flow across that surface. A binding interaction results in an increase in mass on the sensor surface and a corresponding direct change in the refractive index of the medium in the vicinity of the sensor surface. Changes in refractive index or signal are recorded in resonance units (R.U.) Signal changes due to association and dissociation of complexes are monitored in a non-invasive manner, continuously and in real-time, the results of which are reported in the form of a sensorgram.
(§3) The SPR assay is configured to examine solution inhibition of BCL-2 binding to peptide derivatized sensor surfaces to generate IC50 values as a measure of inhibitor potency.
(§4) Solution Inhibition Assay Format:
(§5) Biacore™ A100 (GE Healthcare, Uppsala, Sweden) was used to conduct all experiments reported herein. Sensor surface preparation and all interaction analyses experiments were performed at 25° C. Reagents were purchased from GE Healthcare. Running buffer containing 10 mM Hepes, pH7.4, 150 mM sodium chloride, 1.25 mM Dithiothreitol, 3% Dimethyl sulfoxide and 0.05% polysorbate 20 were utilized throughout all analyses.
(§6) Biotinylated BAK, BAD and NOXA peptides were diluted to 10 nM in running buffer and captured onto a sensor surface pre-derivatized with streptavidin (sensor chip SA) to peptide surface densities in the range 50-100 R.U. Peptide captured surfaces were blocked with 500 μM PEO2-Biotin.
(§7) Interaction analyses were performed by first equilibrating each sample within a 6 point three fold compound dilution series in the range […] with 56 nM BCL-2 for one hour during instrument start-up procedures. Protein compound mixtures were then injected over each peptide surface in parallel for 60 seconds at a flow-rate of 30 μL/min. 56 nM BCL-2 control samples were also prepared and run at regular intervals during the assay. Surface regeneration was performed at the end of each analysis cycle by two 30 second injections of 10 mM Glycine, pH 2.5, 1M Sodium Chloride, 0.05% polysorbate 20. Samples and control compound samples were run in duplicate and controls are also run at regular intervals during the assay to monitor surface and assay performance.
(§8) Data analyses are carried out using Biacore™ A100 evaluation software v1.1 to validate assay quality. Binding level report points were used relative to BCL-2 control samples to calculate % inhibition values for each compound protein mixture. […] The range of data shown in table 1 represents the high and low IC50 values obtained from multiple experiments.
For orientation: Surface plasmon resonance follows binding to a sensor surface in real time, without labels.

For experiment [2], the target named is BCL-2 binding to biotinylated BAK peptide (Homo sapiens (Human), UniProt P10415). In words: SPR (Biacore) solution inhibition assay, BCL-2 binding to BAK peptide surface. The conditions noted are these: read-out: BCL2_SPR IC50 BAK.
Excerpt: as §1, §2, §3, §4, §5, §6, §7, §8

[3] abbreviates: high and low IC50 values from multiple experiments, 56 nM BCL-2, BAK peptide sensor surface, 25° C.
Setting [4] is: high and low IC50 values from multiple experiments, 56 nM BCL-2, BAD peptide sensor surface, 25° C.

pIC50: −log10 of the molar value. Where two headings read alike, the source gives them in different places.

BCL-2 binding to biotinylated BAK peptide, sequence (P10415 whole entry): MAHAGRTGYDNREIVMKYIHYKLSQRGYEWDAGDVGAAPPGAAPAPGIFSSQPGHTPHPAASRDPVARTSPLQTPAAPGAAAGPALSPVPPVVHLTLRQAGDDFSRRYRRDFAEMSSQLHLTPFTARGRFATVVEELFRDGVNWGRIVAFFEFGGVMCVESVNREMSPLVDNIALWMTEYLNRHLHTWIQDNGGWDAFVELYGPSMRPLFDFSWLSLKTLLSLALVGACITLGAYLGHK
BCL-2 binding to biotinylated BAD peptide, sequence (P10415 whole entry): as above

By pIC50 is commonly meant the IC50 on a negative log10 scale, so that one unit is a factor of ten. On to `CCCCN(CCCC)C(=O)c1cc(C)n(-c2ccc(NS(=O)(=O)c3ccccc3)cc2C(=O)N2Cc3ccccc3C[C@H]2CO)n1` (stereo in doubt) [Example 1, N,N-dibutyl-1-(2-(3-(hydroxymethyl)-1,2,3,4-tetrahydroisoquinoline-2-carbonyl)-4-(phenylsulfonamido)phenyl)-5-methyl-1H-pyrazole-3-carboxamide], for which the pIC50 is 6.12 to 6.20 in experiment [1] and 6.25 to 6.32 in experiment [2].
`CCCCN(CCCC)C(=O)c1cc(C)n(-c2ccc(NS(=O)(=O)c3ccccc3Cl)cc2C(=O)N2Cc3ccccc3C[C@H]2CO)n1` [Example 14]: the negative-log IC50 (pIC50) in experiment [2] (setting [3]) is 6.17 to 6.36.
Turning to `CCCCN(CCCC)C(=O)c1cc(C)n(-c2ccc(NS(=O)(=O)c3ccc(NC(C)=O)c(Cl)c3)cc2C(=O)N2Cc3ccccc3C[C@H]2CO)n1` [Example 25], the negative logarithm of the IC50 (pIC50) is 6.36 to 6.38 in experiment [1] (setting [4]) and 6.59 to 6.60 in experiment [2] (setting [3]).
For `CCCCN(CCCC)C(=O)c1cc(C)n(-c2ccc(NS(=O)(=O)c3ccc(Oc4ccccc4C)cc3)cc2C(=O)N2Cc3ccccc3C[C@H]2CO)n1` [Example 10] the same measures were less than 4.80 and 5.43 to 5.52.
For `CCCCN(CCCC)C(=O)c1cc(C)n(-c2ccc(NS(=O)(=O)c3cc(Cl)ccc3F)cc2C(=O)N2Cc3ccccc3C[C@H]2CO)n1` [Example 17], the pIC50 in experiment [2] (setting [3]) is 6.06 to 6.08.
In the case of `CCCCN(CCCC)C(=O)c1cc(C)n(-c2ccc(NS(=O)(=O)C(C)C)cc2C(=O)N2Cc3ccccc3C[C@H]2CO)n1` [Example 3], the negative-log IC50 (pIC50) in experiment [1] was 6.90; in experiment [2], 7.03 to 7.06.
Consider `CCCCN(CCCC)C(=O)c1cc(C)n(-c2ccc(NS(C)(=O)=O)cc2C(=O)N2Cc3ccccc3C[C@H]2CO)n1` [Example 2], for which the pIC50 in experiment [1] is 6.41 to 6.44; in experiment [2], 6.48 to 6.59.
In the case of `CCCCN(CCCC)C(=O)c1cc(C)n(-c2ccc(NS(=O)(=O)c3ccc(CNC(=O)c4ccc(Cl)cc4)s3)cc2C(=O)N2Cc3ccccc3C[C@H]2CO)n1` [Example 30], the pIC50 in experiment [2] (setting [3]) is 5.60 to 5.64.
As for `CCCCN(CCCC)C(=O)c1cc(C)n(-c2ccc(NS(=O)(=O)c3ccc(-c4ccc(Cl)cc4)cc3)cc2C(=O)N2Cc3ccccc3C[C@H]2CO)n1` [Example 9], the pIC50 in experiment [1] (setting [4]) was less than 4.80.

Values taken from patent US9126980B2, “Compounds for inhibiting the interaction of BCL2 with binding partners” (Novartis AG, priority 2011, dated 2015).
